The values below are quoted from earlier work in patent US11634860B2, “Articles and methods for dispensing metal ions into laundry systems” (Applied Silver, Inc., priority 2016, dated 2023).

For this series the following is noted: silver salt formed with the binder's counterion.

Take `[Ag+].[Ag+].[S-2]` [Ag2S]: the “Solubility Limit” value was 6.21E−16 g/100 mL.
Regarding `[Cl][Ag]` [AgCl], the “Solubility Limit” value is listed as 1.60E−04 g/100 mL.
On to `[Ag+].[F-]` [AgF], for which the “Solubility Limit” value was 100 g/100 mL.
